{
  "source": "patent US20240299290A1",
  "about": "“METHODS AND COMPOSITIONS FOR RAPID DELIVERY OF ANTI-SEIZURE THERAPEUTICS” (Neurelis, Inc., priority 2021, published 2024)",
  "key": {"[1]": {"assay": "not given", "remark": "listed apart in the source"}, "[2]": {"assay": "Safety results of the PK profile crossover study"}, "[3]": {"system": "seizure activity (beta frequency by EEG)", "assay": "Change in beta frequency by EEG", "conditions": "intranasal 20 mg via intranasal composition"}, "seizure": {"system": "seizure", "assay": "Rapid onset of therapeutic effect: seizure cessation measured by EEG after intranasal diazepam", "conditions": "for Time to Seizure Cessation: dosed during seizure, individual subjects"}, "[4]": {"conditions": "safety population, 163 subjects"}, "[5]": {"conditions": "24 subjects, all three diazepam treatments"}},
  "note": "Where “and” joins values, the source holds several entries; their conditions need not be identical. Equal entries are not always repeated. Entries after “also recorded” stand apart in the source; their conditions may differ. Where two headings read alike, the source gives them in different places.",
  "data": [
    {"smiles": "CN1C(=O)CN=C(c2ccccc2)c2cc(Cl)ccc21", "note": "[diazepam, 7-chloro-1,3-dihydro-1-methyl-5-phenyl-2H-1,4-benzodiazepin-2-one]", "values": [
      {"measurement": "TEAE: seizure, nasopharyngitis, nasal discomfort (each)", "setting": "2 of 57 subjects each", "result": 3.5, "unit": "%"},
      {"measurement": "TEAE: dysgeusia", "setting": "3 of 57 subjects", "result": 5.3, "unit": "%"},
      {"measurement": "PK profile in seizure versus non-seizure state", "setting": "5-20 mg intranasal, subjects with epilepsy, any age group or dose", "result": "not notably altered"},
      {"measurement": "subjects with treatment-related AEs", "setting": "8 of 57 subjects", "result": 14.0, "unit": "%"},
      {"measurement": "subjects with at least one AE", "setting": "17 out of 57 subjects", "result": 29.8, "unit": "%"},
      {"measurement": "suicidal ideation post-dosing", "setting": "57 subjects", "result": "No subjects"},
      {"measurement": "respiratory depression", "setting": "[1]; 163 subjects", "result": "no incidents"},
      {"measurement": "Treatment-related AE: epistaxis, dysgeusia, somnolence (each)", "setting": "[1]; [4]", "result": 3, "unit": "subjects"},
      {"measurement": "Treatment-related AE: headache", "setting": "[1]; [4]", "result": 4, "unit": "subjects"},
      {"measurement": "Treatment-related AE: nasal discomfort", "setting": "[1]; [4]", "result": 10, "unit": "subjects"},
      {"measurement": "each of the 14 single-subject treatment-related AEs (nasal mucosal disorder to rash)", "setting": "[1]; [4]", "result": 0.6, "unit": "%"},
      {"measurement": "subjects with at least one AE", "setting": "[1]; [4]", "result": 134, "unit": "subjects"},
      {"measurement": "subjects with at least one AE/TEAE", "setting": "[1]; [4]", "result": 82.2, "unit": "%"},
      {"measurement": "subjects with treatment-related AEs", "setting": "[1]; [4]", "result": 30, "unit": "subjects"},
      {"measurement": "subjects with treatment-related AEs/TEAEs", "setting": "[1]; [4]", "result": 18.4, "unit": "%"},
      {"measurement": "treatment-related AEs that were serious", "setting": "[1]; [4]", "result": "None"},
      {"measurement": "overall safety conclusion", "setting": "[1]; subjects with epilepsy, intranasal", "result": "safe and well tolerated; also recorded: good safety profile"},
      {"measurement": "AE: epistaxis", "setting": "[2]; [5]", "result": 7, "unit": "subjects"},
      {"measurement": "AE: somnolence", "setting": "[2]; [5]", "result": 6, "unit": "subjects"},
      {"measurement": "AE: somnolence", "setting": "[2]; each of the intranasal dosages (suspension, solution)", "result": 1, "unit": "subject"},
      {"measurement": "reports of epistaxis", "setting": "[2]; intranasal", "result": 3, "unit": "events"},
      {"measurement": "tolerability", "setting": "[2]; intranasal suspension and solution, 10 mg", "result": "well-tolerated"},
      {"measurement": "time to changes in beta frequency (EEG)", "setting": "[3]", "result": "≤ 6", "unit": "min"},
      {"measurement": "Time to Seizure Cessation", "setting": "seizure; 10 mg intranasal", "result": "1 min and <1 min (2×)"},
      {"measurement": "Time to Seizure Cessation", "setting": "seizure; 15 mg intranasal", "result": "<1 min (6×) and 1 min (2×)"},
      {"measurement": "Time to Seizure Cessation", "setting": "seizure; 20 mg intranasal", "result": "<1 min (12×) and 1 min"},
      {"measurement": "Cessation of the seizure, as measured by EEG", "setting": "seizure; 10, 15 or 20 mg intranasal during active seizure, all but one of the subjects", "result": "≤ 1", "unit": "min"},
      {"measurement": "subsequent seizure during the period of observation", "setting": "seizure; intranasal, dosed after seizure had ended", "result": "no subsequent seizure was experienced by any of the subjects"}
    ]}
  ]
}
